Measured values as given in patent publication US20190125745A1, “TREATMENT AND DIAGNOSIS OF CANCER” (Rgenix, Inc., priority 2014, published 2019).
Structures can show the parent of a compound that is named as a salt.

Target: T1, LXRβ (Homo sapiens, UniProt P55055)
T1 sequence (P55055 1-460): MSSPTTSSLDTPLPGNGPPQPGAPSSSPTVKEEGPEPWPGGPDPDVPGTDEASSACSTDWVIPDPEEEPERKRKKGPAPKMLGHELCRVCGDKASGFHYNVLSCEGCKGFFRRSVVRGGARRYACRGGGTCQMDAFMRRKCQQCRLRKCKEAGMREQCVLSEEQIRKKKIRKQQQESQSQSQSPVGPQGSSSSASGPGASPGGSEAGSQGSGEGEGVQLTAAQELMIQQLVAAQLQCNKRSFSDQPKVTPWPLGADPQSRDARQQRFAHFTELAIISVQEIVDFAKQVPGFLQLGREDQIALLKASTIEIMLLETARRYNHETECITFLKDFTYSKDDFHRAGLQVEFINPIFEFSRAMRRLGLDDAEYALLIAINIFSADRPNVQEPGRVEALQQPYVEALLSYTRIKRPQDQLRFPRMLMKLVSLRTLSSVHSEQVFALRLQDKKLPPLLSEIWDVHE
Assay: ligand sensing assay (LiSA), LXRβ
Assay type: biochemical
Conditions: hydrochloride
Excerpt: As used herein, reference to the activity of an LXR agonist at LXRα and LXRβ refer to the activity as measured using the ligand sensing assay (LiSA) described in Spencer et al. Journal of Medicinal Chemistry 2001, 44, 886-897, incorporated herein by reference. […] For example, the methods of the invention can be performed using an LXRβ agonist having activity for LXRβ that is at least 3-fold greater than the activity of the agonist for LXRα, or having activity for LXRβ that is at least 10-fold greater than the activity of the agonist for LXRα, or having activity for LXRβ that is at least 100-fold greater than the activity of said agonist for LXRα, or having activity for LXRβ that is at least within 3-fold of the activity of the agonist for LXRα. The term “greater activity” in the LiSA assay refers to a lower EC50.

O=C(O)Cc1cccc(OCCCN(Cc2cccc(C(F)(F)F)c2Cl)CC(c2ccccc2)c2ccccc2)c1 [GW3965 108, 3-[3-[N-(2-Chloro-3-trifluoromethylbenzyl)-(2,2-diphenylethyl)amino]propyloxy] phenylacetic acid hydrochloride]
greater activity for LXRβ compared to LXRα: 6 fold
greater activity for LXRβ compared to LXRα (row): approximately 6 fold
